Test [1] has as its target T1, Muscarinic acetylcholine receptor M1 (Homo sapiens, UniProt P11229).
T1 sequence (P11229 whole entry): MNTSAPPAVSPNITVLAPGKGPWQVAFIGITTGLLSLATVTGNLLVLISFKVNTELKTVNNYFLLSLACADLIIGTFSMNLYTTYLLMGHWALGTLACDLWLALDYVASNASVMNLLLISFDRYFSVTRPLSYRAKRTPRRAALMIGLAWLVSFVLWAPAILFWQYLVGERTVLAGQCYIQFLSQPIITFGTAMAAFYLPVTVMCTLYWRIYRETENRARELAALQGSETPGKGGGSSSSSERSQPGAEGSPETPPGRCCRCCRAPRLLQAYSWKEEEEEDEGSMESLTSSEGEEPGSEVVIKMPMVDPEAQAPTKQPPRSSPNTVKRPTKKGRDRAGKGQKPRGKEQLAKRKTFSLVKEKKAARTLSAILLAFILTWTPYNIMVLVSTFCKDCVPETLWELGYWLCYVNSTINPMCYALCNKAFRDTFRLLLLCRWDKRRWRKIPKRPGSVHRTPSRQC
In kind it is functional, cell-based.

The target in test [2] is 3',5'-cyclic-AMP phosphodiesterase 4A (Homo sapiens, UniProt P27815). The test is classed as functional.
The target of test [3] is Prostaglandin G/H synthase 1 (Homo sapiens, UniProt P23219). The test is classed as functional.
Another test addresses T2, Thromboxane A2 receptor (Homo sapiens, UniProt P21731).
T2 sequence (P21731 whole entry): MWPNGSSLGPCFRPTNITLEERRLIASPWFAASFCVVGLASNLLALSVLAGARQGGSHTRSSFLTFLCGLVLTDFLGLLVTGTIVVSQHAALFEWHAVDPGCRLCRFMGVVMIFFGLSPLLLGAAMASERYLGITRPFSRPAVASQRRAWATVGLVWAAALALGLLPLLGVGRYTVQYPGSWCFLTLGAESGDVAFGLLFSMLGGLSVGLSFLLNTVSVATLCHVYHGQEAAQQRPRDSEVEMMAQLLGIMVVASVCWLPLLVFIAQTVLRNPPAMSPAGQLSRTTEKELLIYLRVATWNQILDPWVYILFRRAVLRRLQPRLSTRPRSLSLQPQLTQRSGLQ
The test is classed as functional, cell-based.

In another test the target is Mu-type opioid receptor (Homo sapiens, UniProt P35372).
The next test deals with T3, Progesterone receptor (Homo sapiens, UniProt P06401).
T3 sequence (P06401 whole entry): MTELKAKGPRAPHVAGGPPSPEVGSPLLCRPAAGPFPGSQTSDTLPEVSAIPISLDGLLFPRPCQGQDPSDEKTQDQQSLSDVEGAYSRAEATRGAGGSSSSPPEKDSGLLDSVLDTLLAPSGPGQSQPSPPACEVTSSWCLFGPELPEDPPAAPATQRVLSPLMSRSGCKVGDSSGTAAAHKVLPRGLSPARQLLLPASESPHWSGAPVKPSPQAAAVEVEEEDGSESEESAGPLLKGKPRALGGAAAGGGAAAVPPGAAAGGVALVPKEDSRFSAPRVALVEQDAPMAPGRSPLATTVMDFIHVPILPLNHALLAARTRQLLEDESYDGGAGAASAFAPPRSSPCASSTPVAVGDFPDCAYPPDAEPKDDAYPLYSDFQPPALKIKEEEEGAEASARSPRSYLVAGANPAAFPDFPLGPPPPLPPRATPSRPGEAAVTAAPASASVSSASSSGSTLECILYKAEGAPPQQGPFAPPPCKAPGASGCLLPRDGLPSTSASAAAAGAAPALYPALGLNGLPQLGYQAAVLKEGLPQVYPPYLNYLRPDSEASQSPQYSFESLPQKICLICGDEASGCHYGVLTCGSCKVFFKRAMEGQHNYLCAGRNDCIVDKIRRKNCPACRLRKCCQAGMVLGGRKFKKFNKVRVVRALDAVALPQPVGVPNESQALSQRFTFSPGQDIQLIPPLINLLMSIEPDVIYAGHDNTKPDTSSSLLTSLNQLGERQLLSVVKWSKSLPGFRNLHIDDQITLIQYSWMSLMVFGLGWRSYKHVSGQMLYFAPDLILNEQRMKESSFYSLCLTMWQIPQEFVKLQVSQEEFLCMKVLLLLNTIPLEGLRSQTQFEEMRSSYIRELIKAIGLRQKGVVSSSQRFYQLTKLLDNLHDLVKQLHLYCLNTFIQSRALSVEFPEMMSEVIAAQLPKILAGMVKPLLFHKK

The target of test [4] is Vascular endothelial growth factor receptor 2 (Homo sapiens, UniProt P35968). In kind it is functional.
Test [5] deals with T4, Sodium-dependent serotonin transporter (Homo sapiens, UniProt P31645).
Test [6] has as its target Kappa-type opioid receptor (Homo sapiens, UniProt P41145).
In test [7] the target is T5, Alpha-1A adrenergic receptor (Homo sapiens, UniProt P35348).
T5 sequence (P35348 whole entry): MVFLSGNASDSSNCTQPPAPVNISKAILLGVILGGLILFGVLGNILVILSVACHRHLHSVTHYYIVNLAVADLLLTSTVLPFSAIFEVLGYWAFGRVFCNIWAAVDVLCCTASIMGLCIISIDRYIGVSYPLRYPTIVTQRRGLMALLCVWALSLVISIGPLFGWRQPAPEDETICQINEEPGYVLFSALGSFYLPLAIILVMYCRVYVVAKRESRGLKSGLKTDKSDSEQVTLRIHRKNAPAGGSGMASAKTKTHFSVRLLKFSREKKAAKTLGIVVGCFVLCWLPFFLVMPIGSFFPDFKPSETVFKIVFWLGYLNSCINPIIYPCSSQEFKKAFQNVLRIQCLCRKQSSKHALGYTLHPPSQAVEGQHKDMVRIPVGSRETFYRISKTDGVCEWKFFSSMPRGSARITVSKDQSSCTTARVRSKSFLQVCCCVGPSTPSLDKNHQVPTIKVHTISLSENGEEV
The test is classed as functional, cell-based.

The target of test [8] is T4, Sodium-dependent serotonin transporter. This is another data set of the same source.

Bounds are passed on as bounds.

Our source for the AC50 values is ChEMBL document CHEMBL5291721, “A preclinical secondary pharmacology resource illuminates target-adverse drug reaction associations of marketed drugs” (Nat Commun, 2023).
Further: assay procedure not described here.

Chain of Vascular endothelial growth factor receptor 2 (P35968 whole entry): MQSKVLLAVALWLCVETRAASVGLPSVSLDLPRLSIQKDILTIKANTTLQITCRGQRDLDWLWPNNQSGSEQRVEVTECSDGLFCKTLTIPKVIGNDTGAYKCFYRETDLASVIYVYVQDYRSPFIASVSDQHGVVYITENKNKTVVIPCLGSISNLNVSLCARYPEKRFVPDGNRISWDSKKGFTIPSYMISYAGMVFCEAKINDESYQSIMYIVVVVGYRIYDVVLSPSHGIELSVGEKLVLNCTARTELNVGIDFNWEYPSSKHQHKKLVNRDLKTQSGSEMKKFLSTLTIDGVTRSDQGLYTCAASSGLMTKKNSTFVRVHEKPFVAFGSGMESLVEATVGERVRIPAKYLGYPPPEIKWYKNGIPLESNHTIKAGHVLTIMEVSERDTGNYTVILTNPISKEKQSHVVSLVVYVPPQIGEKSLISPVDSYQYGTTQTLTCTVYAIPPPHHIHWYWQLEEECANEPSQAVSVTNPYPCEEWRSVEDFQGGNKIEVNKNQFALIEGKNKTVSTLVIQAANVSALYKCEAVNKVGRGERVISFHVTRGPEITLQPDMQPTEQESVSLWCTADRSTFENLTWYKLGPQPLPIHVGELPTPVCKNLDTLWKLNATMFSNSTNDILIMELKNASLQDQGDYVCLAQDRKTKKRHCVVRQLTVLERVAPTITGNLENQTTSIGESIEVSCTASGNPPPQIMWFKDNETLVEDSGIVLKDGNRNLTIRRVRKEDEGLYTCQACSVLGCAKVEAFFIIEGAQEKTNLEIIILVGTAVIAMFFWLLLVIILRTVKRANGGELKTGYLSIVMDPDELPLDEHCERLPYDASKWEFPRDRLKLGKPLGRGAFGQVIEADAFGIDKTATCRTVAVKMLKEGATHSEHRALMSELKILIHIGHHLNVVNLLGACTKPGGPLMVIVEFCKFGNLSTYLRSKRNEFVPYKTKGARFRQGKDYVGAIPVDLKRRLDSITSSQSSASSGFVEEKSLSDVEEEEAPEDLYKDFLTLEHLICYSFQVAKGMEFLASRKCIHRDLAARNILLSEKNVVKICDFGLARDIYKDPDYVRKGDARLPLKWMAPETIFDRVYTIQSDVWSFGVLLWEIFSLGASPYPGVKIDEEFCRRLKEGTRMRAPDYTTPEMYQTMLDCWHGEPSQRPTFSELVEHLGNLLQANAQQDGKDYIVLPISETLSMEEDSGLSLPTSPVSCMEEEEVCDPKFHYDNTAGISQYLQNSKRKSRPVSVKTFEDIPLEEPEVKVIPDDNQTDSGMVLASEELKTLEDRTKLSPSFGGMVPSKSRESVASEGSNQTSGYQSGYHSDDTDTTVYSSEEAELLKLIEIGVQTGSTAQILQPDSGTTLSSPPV
T4 sequence (P31645 whole entry): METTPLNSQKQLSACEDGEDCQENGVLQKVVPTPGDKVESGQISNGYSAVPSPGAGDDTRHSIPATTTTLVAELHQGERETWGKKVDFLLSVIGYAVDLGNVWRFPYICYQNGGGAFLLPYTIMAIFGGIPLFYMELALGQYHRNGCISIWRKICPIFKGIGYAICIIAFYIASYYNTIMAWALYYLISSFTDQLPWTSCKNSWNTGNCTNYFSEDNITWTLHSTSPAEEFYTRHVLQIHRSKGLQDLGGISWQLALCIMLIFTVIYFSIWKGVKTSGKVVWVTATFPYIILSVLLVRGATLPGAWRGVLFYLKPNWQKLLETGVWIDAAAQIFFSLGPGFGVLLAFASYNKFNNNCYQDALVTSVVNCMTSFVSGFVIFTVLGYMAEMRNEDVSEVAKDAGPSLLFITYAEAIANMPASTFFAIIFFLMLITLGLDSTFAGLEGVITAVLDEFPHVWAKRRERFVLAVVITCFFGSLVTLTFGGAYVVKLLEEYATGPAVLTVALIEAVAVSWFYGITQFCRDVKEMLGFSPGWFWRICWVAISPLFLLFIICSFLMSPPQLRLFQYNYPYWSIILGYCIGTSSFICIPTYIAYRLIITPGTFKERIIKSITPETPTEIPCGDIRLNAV
Chain of Mu-type opioid receptor (P35372 whole entry): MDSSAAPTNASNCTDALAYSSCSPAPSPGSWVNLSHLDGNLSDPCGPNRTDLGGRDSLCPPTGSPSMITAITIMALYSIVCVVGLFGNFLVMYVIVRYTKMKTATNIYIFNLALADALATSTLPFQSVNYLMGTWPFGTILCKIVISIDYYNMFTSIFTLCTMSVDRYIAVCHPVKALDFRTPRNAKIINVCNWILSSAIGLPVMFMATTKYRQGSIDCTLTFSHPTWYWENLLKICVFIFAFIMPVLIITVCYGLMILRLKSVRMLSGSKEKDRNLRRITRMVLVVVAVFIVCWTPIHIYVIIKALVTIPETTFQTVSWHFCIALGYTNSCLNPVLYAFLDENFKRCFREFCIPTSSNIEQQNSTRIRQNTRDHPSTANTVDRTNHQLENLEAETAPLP
Chain of Prostaglandin G/H synthase 1 (P23219 whole entry): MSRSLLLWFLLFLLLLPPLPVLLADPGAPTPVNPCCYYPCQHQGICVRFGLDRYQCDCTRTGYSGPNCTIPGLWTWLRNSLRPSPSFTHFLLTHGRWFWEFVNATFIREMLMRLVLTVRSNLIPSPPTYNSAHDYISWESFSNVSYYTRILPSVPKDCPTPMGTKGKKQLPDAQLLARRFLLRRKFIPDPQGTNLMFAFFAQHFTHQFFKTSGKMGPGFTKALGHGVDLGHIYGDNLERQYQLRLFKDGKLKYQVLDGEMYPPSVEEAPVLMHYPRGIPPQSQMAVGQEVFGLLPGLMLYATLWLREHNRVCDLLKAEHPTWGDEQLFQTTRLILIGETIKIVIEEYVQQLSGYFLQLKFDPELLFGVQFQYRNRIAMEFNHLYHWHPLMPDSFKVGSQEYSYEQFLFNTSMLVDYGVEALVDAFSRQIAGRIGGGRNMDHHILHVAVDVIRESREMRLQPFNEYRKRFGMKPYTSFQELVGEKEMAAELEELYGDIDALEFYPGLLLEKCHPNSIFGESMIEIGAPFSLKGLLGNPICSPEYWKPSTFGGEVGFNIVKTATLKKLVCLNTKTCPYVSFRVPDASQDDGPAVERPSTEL
Chain of 3',5'-cyclic-AMP phosphodiesterase 4A (P27815 whole entry): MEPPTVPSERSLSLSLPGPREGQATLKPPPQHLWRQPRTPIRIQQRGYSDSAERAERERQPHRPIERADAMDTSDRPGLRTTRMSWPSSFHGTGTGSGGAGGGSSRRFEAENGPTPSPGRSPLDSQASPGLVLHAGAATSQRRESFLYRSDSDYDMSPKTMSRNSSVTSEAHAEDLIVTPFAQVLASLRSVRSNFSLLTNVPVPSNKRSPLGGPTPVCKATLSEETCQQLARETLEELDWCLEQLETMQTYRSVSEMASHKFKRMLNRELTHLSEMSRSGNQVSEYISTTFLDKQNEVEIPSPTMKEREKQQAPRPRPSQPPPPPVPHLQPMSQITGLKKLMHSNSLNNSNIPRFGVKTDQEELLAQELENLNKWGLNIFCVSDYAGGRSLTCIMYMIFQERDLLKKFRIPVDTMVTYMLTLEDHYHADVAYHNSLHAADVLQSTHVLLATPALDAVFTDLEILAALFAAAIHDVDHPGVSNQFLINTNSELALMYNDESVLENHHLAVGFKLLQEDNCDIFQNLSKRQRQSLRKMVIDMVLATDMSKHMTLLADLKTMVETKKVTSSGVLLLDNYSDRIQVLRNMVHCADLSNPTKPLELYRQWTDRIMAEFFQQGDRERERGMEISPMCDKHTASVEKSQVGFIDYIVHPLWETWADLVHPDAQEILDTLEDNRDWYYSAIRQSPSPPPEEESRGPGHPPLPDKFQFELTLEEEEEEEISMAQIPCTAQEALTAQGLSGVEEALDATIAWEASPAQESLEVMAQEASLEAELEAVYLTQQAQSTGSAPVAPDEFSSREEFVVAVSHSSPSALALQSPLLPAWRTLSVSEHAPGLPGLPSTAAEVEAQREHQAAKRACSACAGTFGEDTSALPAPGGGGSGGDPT
Chain of Kappa-type opioid receptor (P41145 whole entry): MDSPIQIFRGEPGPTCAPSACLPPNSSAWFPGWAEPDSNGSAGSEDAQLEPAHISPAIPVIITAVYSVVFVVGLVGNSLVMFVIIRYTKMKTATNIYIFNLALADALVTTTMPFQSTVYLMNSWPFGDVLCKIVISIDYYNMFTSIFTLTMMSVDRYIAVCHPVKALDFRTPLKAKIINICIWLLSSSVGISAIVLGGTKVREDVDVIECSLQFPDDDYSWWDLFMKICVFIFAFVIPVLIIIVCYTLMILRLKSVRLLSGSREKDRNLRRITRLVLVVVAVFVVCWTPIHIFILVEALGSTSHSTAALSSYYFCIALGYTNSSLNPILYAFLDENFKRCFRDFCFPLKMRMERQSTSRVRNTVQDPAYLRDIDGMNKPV

Regarding `COC(c1ccccc1)(c1ccccc1)[C@H](Oc1nc(C)cc(C)n1)C(=O)O` [AMBRISENTAN], the AC50 (in [1]; in test [2]; in test [3]; on Thromboxane A2 receptor; at Mu-type opioid receptor; at Progesterone receptor) was greater than 30 µM throughout. Also, the AC50 in test [4] and in test [5] was greater than 30 µM each time.

In the case of `CN(C)CCn1nnnc1SCC1=C(C(=O)O)N2C(=O)[C@@H](NC(=O)Cc3csc(N)n3)[C@H]2SC1` [CEFOTIAM], the AC50 (in [1]; in test [2]; in test [3]; on Thromboxane A2 receptor; on Mu-type opioid receptor; on Progesterone receptor) was greater than 30 µM in each case. Moreover, the concentration at half-maximal activity (AC50) – broadly, the concentration at which the activity in the assay is half-maximal – in test [5] was greater than 30 µM.

Consider `Oc1c(Cl)cc(Cl)c2cccnc12` [CHLOROXINE], for which the AC50 (in test [1]; in test [2]; in test [3]; at Thromboxane A2 receptor; at Mu-type opioid receptor; at Progesterone receptor) was greater than 30 µM throughout. For the same compound, the AC50 in test [4] and in test [5] was greater than 30 µM in each case.

`CN(C)[C@@H](c1cccc(O)c1)[C@H]1CCCC[C@H]1O` [CIRAMADOL]: the AC50 is greater than 30 µM in test [1]; greater than 30 µM in test [2]; greater than 10 µM in test [3]; greater than 30 µM on Thromboxane A2 receptor; 0.0059 µM at Mu-type opioid receptor; greater than 30 µM at Progesterone receptor. Also, the values for the half-maximal activity concentration (AC50) in test [4] and in test [5] were 9.31 µM and 27.5 µM, respectively.

In the case of `CN(C)CC(c1ccc(O)cc1)C1(O)CCCCC1` (centres undefined) [DESVENLAFAXINE], the half-maximal activity concentration (AC50) was greater than 30 µM in test [1]; greater than 30 µM in [2]; greater than 30 µM in test [3]; greater than 30 µM at Thromboxane A2 receptor; 28.4 µM on Mu-type opioid receptor; greater than 30 µM on Progesterone receptor. The concentration at half-maximal activity (AC50) in [4] is greater than 30 µM.

Take `CN(C)CCN1C(=O)c2ccccc2N(C)c2ccccc21` [DIBENZEPIN]: the AC50 in [1] was greater than 30 µM; in [2] it was greater than 30 µM; in test [3] it was greater than 30 µM; on Thromboxane A2 receptor it was greater than 30 µM; at Mu-type opioid receptor, 28.8 µM; on Progesterone receptor, greater than 30 µM. For the same compound, the AC50 in test [4] was greater than 30 µM; in test [5], 1.32 µM.

Take `O=C(Cc1ccc(-c2ccccc2)cc1)Nc1ccccn1` [DIFENPIRAMIDE]: the AC50 (in test [1]; in test [2]; in test [6]; in [3]; at Thromboxane A2 receptor; at Mu-type opioid receptor) was greater than 30 µM in each case. The AC50 (in [7]; on Progesterone receptor; in test [5]) was greater than 30 µM each time.

In the case of `N[C@H](C(=O)O)[C@H](O)c1ccc(O)c(O)c1` [DROXIDOPA], the concentration at half-maximal activity (AC50) was greater than 30 µM in test [1]; greater than 30 µM in [2]; 17.8 µM in test [3]; greater than 30 µM at Thromboxane A2 receptor; greater than 30 µM on Mu-type opioid receptor; greater than 30 µM on Progesterone receptor. Also, the AC50 in [4] and in test [5] was greater than 30 µM in each case.

Regarding `Cc1cc(C#N)cc(C)c1Oc1nc(Nc2ccc(C#N)cc2)nc(N)c1Br` [ETRAVIRINE], the AC50 is greater than 10 µM in test [1]; greater than 30 µM in test [2]; 14.4 µM in [3]; greater than 3 µM on Thromboxane A2 receptor; 19.1 µM at Mu-type opioid receptor; 0.08 µM at Progesterone receptor. Further, the concentration at half-maximal activity (AC50) in test [5] is greater than 30 µM.

With `O=C(O)c1cc(O)ccc1O` [GENTISIC ACID], the AC50 (in test [1]; in [2]; in [3]; at Thromboxane A2 receptor; on Mu-type opioid receptor; on Progesterone receptor) was greater than 30 µM throughout. The AC50 in test [4] and in [5] was greater than 30 µM in each case.

As to `CC(C)Nc1ncccn1` [ISAXONINE], the half-maximal activity concentration (AC50) (in test [1]; in [2]; in test [3]; on Thromboxane A2 receptor; at Mu-type opioid receptor; at Progesterone receptor) was greater than 30 µM in each case. The AC50 in test [4] and in test [5] was greater than 30 µM each time.

For `N[C@@H](C(=O)N[C@@H]1C(=O)N2C(C(=O)O)=C(Cl)CC[C@H]12)c1ccccc1` [LORACARBEF ANHYDROUS], the concentration at half-maximal activity (AC50) (in [1]; in test [2]; in test [3]; at Thromboxane A2 receptor; at Mu-type opioid receptor; on Progesterone receptor) was greater than 30 µM each time. In test [5], the AC50 is greater than 30 µM.

Take `OCCN1C[C@H](O)[C@@H](O)[C@H](O)[C@H]1CO` [MIGLITOL]: the half-maximal activity concentration (AC50) (in [1]; in [2]; in [3]; at Thromboxane A2 receptor; on Mu-type opioid receptor; at Progesterone receptor) was greater than 30 µM in each case. Further, the AC50 in test [4] and in test [5] was greater than 30 µM each time.

On to `COCCCN1CCC(NC(=O)c2cc(Cl)c(N)c3c2OCC3)CC1` [PRUCALOPRIDE], for which the half-maximal activity concentration (AC50) (in test [1]; in [8]; in [2]; in test [3]; at Thromboxane A2 receptor; at Mu-type opioid receptor) was greater than 30 µM throughout. In addition, the concentration at half-maximal activity (AC50) in [7] is 15 µM; at Progesterone receptor it was greater than 30 µM; in test [5] it was greater than 30 µM.

On to `C=C[C@H]1C[N@@]2CC[C@H]1C[C@H]2[C@H](O)c1ccnc2ccc(OC)cc12` [QUININE], for which the AC50 in test [1] is greater than 30 µM; in test [2], greater than 30 µM; in test [3] it was greater than 30 µM; on Thromboxane A2 receptor, greater than 30 µM; at Mu-type opioid receptor, 8.38 µM; at Progesterone receptor, greater than 30 µM. The same compound returned an AC50 in test [4] greater than 30 µM.

With `CCC(=O)NCC[C@@H]1CCc2ccc3c(c21)CCO3` [RAMELTEON], the AC50 (in test [1]; in [2]; in test [3]; at Thromboxane A2 receptor; at Mu-type opioid receptor; on Progesterone receptor) was greater than 30 µM in each case. In [5], this compound returned an AC50 greater than 30 µM.
